Source: PubChem BioAssay (NCI)
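Protocol summary: plate cells (96-well), add compound at 5 concentrations, incubate 48 h, interpolate endpoints linearly. Here, GI50 denotes the concentration required for 50% inhibition of growth. At the TGI there is no net growth.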

Key:
Experiment in all cases: DTP human tumour cell line panel, 48 h
KM12 colon = tested on: KM12 colon
HOP-62 NSCLC = tested on: HOP-62 NSCLC
HS 578T breast = tested on: HS 578T breast
OVCAR-5 ovarian = tested on: OVCAR-5 ovarian
CCRF-CEM leukemia = tested on: CCRF-CEM leukemia
SK-MEL-2 melanoma = tested on: SK-MEL-2 melanoma
T-47D breast = tested on: T-47D breast
A549 NSCLC = tested on: A549 NSCLC
NCI-H23 lung = tested on: NCI-H23 lung
SR leukemia = tested on: SR leukemia
RPMI-8226 leukemia = tested on: RPMI-8226 leukemia
SW-620 colon = tested on: SW-620 colon
HCT-116 colon = tested on: HCT-116 colon
NCI/ADR-RES ovarian = tested on: NCI/ADR-RES ovarian
SNB-19 CNS = tested on: SNB-19 CNS
MCF7 breast = tested on: MCF7 breast
RXF 393 renal = tested on: RXF 393 renal
NCI-H522 lung = tested on: NCI-H522 lung
HL-60(TB) leukemia = tested on: HL-60(TB) leukemia
MDA-MB-435 = tested on: MDA-MB-435
UO-31 renal = tested on: UO-31 renal
786-0 renal = tested on: 786-0 renal
OVCAR-8 ovarian = tested on: OVCAR-8 ovarian
HOP-92 NSCLC = tested on: HOP-92 NSCLC
SK-MEL-28 melanoma = tested on: SK-MEL-28 melanoma
HCC-2998 colon = tested on: HCC-2998 colon
OVCAR-4 ovarian = tested on: OVCAR-4 ovarian
NCI-H226 lung = tested on: NCI-H226 lung
SN12C renal = tested on: SN12C renal

Compound: N#CSc1cc(-c2nc3ccccc3o2)ccc1N
- TGI (KM12 colon): 27.1 µM
- GI50 (HOP-62 NSCLC): 52.7 µM
- TGI (HOP-62 NSCLC): > 100 µM
- GI50 (HS 578T breast): 11.3 µM
- TGI (HS 578T breast): 63.6 µM
- GI50 (OVCAR-5 ovarian): 25.2 µM
- TGI (OVCAR-5 ovarian): 76.6 µM
- GI50 (CCRF-CEM leukemia): 10.6 µM
- TGI (CCRF-CEM leukemia): 30.2 µM
- GI50 (SK-MEL-2 melanoma): 40.7 µM
- TGI (SK-MEL-2 melanoma): > 74.3 µM
- GI50 (T-47D breast): 7.5 µM
- TGI (T-47D breast): 90 µM
- GI50 (A549 NSCLC): 2.42 µM
- TGI (A549 NSCLC): > 53 µM
- GI50 (NCI-H23 lung): 19.5 µM
- TGI (NCI-H23 lung): > 86.1 µM
- GI50 (SR leukemia): 0.203 µM
- TGI (SR leukemia): > 100 µM
- GI50 (RPMI-8226 leukemia): 15.9 µM
- TGI (RPMI-8226 leukemia): 53 µM
- GI50 (SW-620 colon): 25.7 µM
- TGI (SW-620 colon): > 86.2 µM
- GI50 (HCT-116 colon): 26.5 µM
- TGI (HCT-116 colon): > 100 µM
- GI50 (NCI/ADR-RES ovarian): 22.2 µM
- TGI (NCI/ADR-RES ovarian): 87.5 µM
- GI50 (SNB-19 CNS): 59.7 µM
- TGI (SNB-19 CNS): > 100 µM
- GI50 (MCF7 breast): 14.5 µM
- TGI (MCF7 breast): > 84.8 µM
- GI50 (RXF 393 renal): 0.965 µM
- TGI (RXF 393 renal): 26.3 µM
- GI50 (NCI-H522 lung): > 40.9 µM
- TGI (NCI-H522 lung): > 64.6 µM
- GI50 (HL-60(TB) leukemia): 0.195 µM
- TGI (HL-60(TB) leukemia): 0.552 µM
- GI50 (MDA-MB-435): 24 µM
- TGI (MDA-MB-435): 64.1 µM
- GI50 (UO-31 renal): 22.6 µM
- TGI (UO-31 renal): > 59.4 µM
- GI50 (786-0 renal): 33.4 µM
- TGI (786-0 renal): 97.4 µM
- GI50 (OVCAR-8 ovarian): 2.79 µM
- TGI (OVCAR-8 ovarian): > 32.5 µM
- GI50 (HOP-92 NSCLC): 22.4 µM
- TGI (HOP-92 NSCLC): 64.2 µM
- GI50 (SK-MEL-28 melanoma): 29.6 µM
- TGI (SK-MEL-28 melanoma): > 100 µM
- GI50 (HCC-2998 colon): 22.6 µM
- TGI (HCC-2998 colon): > 100 µM
- GI50 (OVCAR-4 ovarian): 30.5 µM
- TGI (OVCAR-4 ovarian): > 100 µM
- GI50 (NCI-H226 lung): 5.23 µM
- TGI (NCI-H226 lung): 37.8 µM
- GI50 (SN12C renal): 15.8 µM
- TGI (SN12C renal): 43.1 µM
